Data: patent US20110136854A1, “NOVEL 9-AZA-BICYCLO[3.3.1]NON-3-YLOXY CHROMEN-2-ONE DERIVATIVES AND THEIR USE AS MONOAMINE NEUROTRANSMITTER RE-UPTAKE INHIBITORS” (NeuroSearch A/S, priority 2008, published 2011)
Counter-ions that a name gives are not always drawn. Like-named read-outs stand apart in the source and are kept apart here.

Legend:
Assay type in all cases: biochemical
[1] = target: T1, reuptake of dopamine (DA) in synaptosomes (Rattus norvegicus, UniProt P23977); test: Inhibition of DA reuptake in synaptosomes; conditions: 3H-DA, read-out: DA-uptake IC50
T1 construct: in synaptosomes as described in WO 97/16451; from tissue
From the text: (§1) Compounds of the invention may be tested for their ability to inhibit reuptake of the monoamines dopamine, noradrenaline and serotonin in synaptosomes e.g. such as described in WO 97/30997 (NeuroSearch NS) or WO 97/16451 (NeuroSearch A/S). Based on the balanced activity observed in these tests the compound of the invention is considered useful for the treatment, prevention or alleviation of a disease or a disorder or a condition of a mammal, including a human, which disease, disorder or condition is responsive to inhibition of monoamine neurotransmitter re-uptake in the central nervous system.
(§2) Compounds were tested for their ability to inhibit the reuptake of the mono-amine neurotransmitters dopamine (DA) noradrenaline (NA) and serotonine (5-HT) in synaptosomes as described in WO 97/16451 (NeuroSearch NS).
(§3) The test values are given as IC50 (the concentration (μM) of the test substance which inhibits the specific binding of ^3H-DA, ^3H-NA, or ^3H-5-HT by 50%).

[2] = target: T2, reuptake of noradrenaline (NA) in synaptosomes (Rattus norvegicus, UniProt Q63380); test: Inhibition of NA reuptake in synaptosomes
T2 construct: in synaptosomes as described in WO 97/16451; from tissue
From the text: as §1, §2, §3

[3] = target: T3, reuptake of serotonine (5-HT) in synaptosomes (Rattus norvegicus, UniProt P31652); test: Inhibition of 5-HT reuptake in synaptosomes
T3 construct: serotonine (5-HT) in synaptosomes as described in WO 97/16451; from tissue
From the text: as §1, §2, §3

T2 sequence (Q63380 1-617): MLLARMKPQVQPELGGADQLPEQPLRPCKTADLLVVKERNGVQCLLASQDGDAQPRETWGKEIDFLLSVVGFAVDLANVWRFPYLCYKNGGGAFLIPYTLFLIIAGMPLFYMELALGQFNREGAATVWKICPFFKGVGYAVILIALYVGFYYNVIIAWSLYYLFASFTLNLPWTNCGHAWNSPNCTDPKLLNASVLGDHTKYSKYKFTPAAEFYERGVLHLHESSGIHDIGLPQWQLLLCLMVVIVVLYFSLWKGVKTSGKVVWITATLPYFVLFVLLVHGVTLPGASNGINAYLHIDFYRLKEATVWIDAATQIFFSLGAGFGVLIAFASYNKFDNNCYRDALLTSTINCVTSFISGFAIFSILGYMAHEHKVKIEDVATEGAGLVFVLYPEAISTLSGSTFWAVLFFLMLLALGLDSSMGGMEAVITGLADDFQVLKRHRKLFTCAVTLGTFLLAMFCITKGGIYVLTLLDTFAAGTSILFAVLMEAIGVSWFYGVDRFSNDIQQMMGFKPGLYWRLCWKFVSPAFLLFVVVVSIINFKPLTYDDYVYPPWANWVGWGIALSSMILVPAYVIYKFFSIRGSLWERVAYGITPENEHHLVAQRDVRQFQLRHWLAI
T1 sequence (P23977 whole entry): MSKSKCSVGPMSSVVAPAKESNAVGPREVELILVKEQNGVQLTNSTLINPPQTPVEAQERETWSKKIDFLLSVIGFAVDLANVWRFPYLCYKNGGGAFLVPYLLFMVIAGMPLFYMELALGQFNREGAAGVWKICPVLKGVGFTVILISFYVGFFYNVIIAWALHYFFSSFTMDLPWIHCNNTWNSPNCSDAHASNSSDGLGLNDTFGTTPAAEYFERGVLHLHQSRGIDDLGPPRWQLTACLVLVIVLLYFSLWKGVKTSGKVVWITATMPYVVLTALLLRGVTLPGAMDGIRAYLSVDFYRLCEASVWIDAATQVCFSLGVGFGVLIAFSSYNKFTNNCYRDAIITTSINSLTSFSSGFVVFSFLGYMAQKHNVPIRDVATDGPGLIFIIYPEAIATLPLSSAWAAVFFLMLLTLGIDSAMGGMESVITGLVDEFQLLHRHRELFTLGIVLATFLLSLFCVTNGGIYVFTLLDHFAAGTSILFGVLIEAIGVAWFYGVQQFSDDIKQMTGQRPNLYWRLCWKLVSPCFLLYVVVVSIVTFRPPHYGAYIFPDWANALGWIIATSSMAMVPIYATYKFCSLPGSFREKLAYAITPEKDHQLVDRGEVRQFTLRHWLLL
T3 sequence (P31652 whole entry): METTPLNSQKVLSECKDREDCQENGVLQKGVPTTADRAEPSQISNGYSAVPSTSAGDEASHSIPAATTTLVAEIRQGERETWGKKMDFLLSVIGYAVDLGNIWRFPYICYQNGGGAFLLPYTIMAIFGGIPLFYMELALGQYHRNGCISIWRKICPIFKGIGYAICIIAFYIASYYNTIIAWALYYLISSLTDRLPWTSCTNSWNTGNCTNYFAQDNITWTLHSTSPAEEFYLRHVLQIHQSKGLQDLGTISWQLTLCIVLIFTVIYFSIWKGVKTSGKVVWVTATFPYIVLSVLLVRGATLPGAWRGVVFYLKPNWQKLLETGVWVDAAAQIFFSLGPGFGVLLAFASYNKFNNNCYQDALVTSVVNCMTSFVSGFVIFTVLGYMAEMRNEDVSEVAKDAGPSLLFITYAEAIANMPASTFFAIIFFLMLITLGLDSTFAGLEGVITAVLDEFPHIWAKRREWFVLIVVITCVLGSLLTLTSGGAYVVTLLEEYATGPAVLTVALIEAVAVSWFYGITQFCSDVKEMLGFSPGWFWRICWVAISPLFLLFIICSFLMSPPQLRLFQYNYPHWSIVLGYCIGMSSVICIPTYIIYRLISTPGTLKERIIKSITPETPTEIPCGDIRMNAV

SMILES	IC50 [1]	IC50 [2]	IC50 [3]	IC50 ([2]; synaptosomes, 3H-NA, read-out: NA-uptake IC50)
O=c1ccc2ccc(O[C@@H]3C[C@H]4CCC[C@@H](C3)N4)cc2o1 [Compound A1, exo-7-(9-Aza-bicyclo[3.3.1]non-3-yloxy)-chromen-2-one hydrochloric acid salt]	240 nM	76 nM	1.3 nM	–
CN1[C@@H]2CCC[C@H]1C[C@H](Oc1ccc3ccc(=O)oc3c1)C2 [Compound A2, exo-7-(9-Methyl-9-aza-bicyclo[3.3.1]non-3-yloxy)-chromen-2-one hydrochloric acid salt]	150 nM	–	2.9 nM	270 nM
